These results are taken from patent publication US20230037975A1, “USE OF C[…] IN ORAL CARE COMPOSITIONS TO INHIBIT THE GROWTH OF P. GINGIVALIS” (Demetrix, Inc., priority 2021, published 2023).

For this test, the system named is Porphyromonas gingivalis. As to the kind of experiment: minimum inhibitory concentration (MIC) assay against P. gingivalis. The class given is cell-based. How it is done: To determine the ability of the cannabinoid compounds described herein to reduce, or eliminate, P. gingivalis a minimum inhibitory concentration (“MIC”) assay was performed. The assay was performed by Charles River Laboratories International (Wilmington, Mass.) in accordance with industry standards.

The mark [1] stands for this setting: Porphyromonas gingivalis; against P. gingivalis; Table 1; read-out: MIC.
The mark [2] stands for this setting: Porphyromonas gingivalis; read-out: minimum inhibitory concentration (MIC) against P. gingivalis.
Setting [3] is: Porphyromonas gingivalis, read-out: minimum inhibitory concentration (MIC) against P. gingivalis.

Values after ≈ are worked out from the molar mass of the structure shown. Like-named read-outs stand apart in the source and are kept apart here. A value given as a limit tells only on which side of the number the result lay.

With `C=C(C)[C@@H]1CCC(C)=C[C@H]1c1c(O)cc(CC)cc1O` [CBD-C2, Cannabidol-C2], the “minimum inhibitory concentration (MIC) against P. gingivalis” value came to 6.25 µg/mL (≈ 22.9 µM). Besides, the MIC (against P. gingivalis; Table 1) amounted to 6.25 µg/mL (≈ 22.9 µM).
On to `CCCCc1cc(O)c(C/C=C(\C)CCC=C(C)C)c(O)c1C(=O)O` [CBGA-C4, cannabigerolic acid butyl], for which the “minimum inhibitory concentration (MIC) against P. gingivalis” value is 6.25 µg/mL (≈ 18 µM). The same compound showed an MIC (against P. gingivalis; Table 1) of 6.25 µg/mL (≈ 18 µM).
On to `CCCCCc1cc(O)c2c(c1)OC(C)(C)c1ccc(C)cc1-2` [CBN, cannabinol], for which the MIC is 3.12 µg/mL (≈ 10.1 µM) under setting [1] and 3.12 µg/mL (≈ 10.1 µM) under setting [2].
As for `CCCCCc1cc(O)c2c(c1)OC(C)(CCC=C(C)C)C=C2` (stereo not drawn) [CBC, cannabichromene], the MIC reads like this: under setting [1], 1.56 µg/mL (≈ 4.96 µM); under setting [2], 1.56 µg/mL (≈ 4.96 µM).
`CCCCCc1cc(O)c2c(c1)OC1(C)CCC3C1C2C3(C)C` (stereo not drawn) [CBL, cannabicyclol]: the MIC is over 200 µg/mL under setting [1] and over 200 µg/mL under setting [2].
As for `C=C(C)[C@@H]1CCC(C)=C[C@H]1c1c(O)cc(CCC)c(C(=O)O)c1O` [CBDVA, cannabidivarinic acid], the “minimum inhibitory concentration (MIC) against P. gingivalis” value is 25 µg/mL (≈ 75.7 µM). Further, under “against P. gingivalis; Table 1”, the MIC is 25 µg/mL (≈ 75.7 µM).
In turn, (+)-cannabidiol [(+)-CBD] registered an MIC (against P. gingivalis; Table 1) of 0.78 µg/mL.
On to `CCCCCc1cc2c(c(O)c1C(=O)O)C=CC(C)(CCC=C(C)C)O2` (stereo not drawn) [CBCA, cannabichromenic acid], for which the “minimum inhibitory concentration (MIC) against P. gingivalis” value came to 3.125 µg/mL (≈ 8.72 µM). The same compound gave an MIC (against P. gingivalis; Table 1) of 3.125 µg/mL (≈ 8.72 µM).
As to `C=C(C)[C@@H]1CCC(C)=C[C@H]1c1c(O)cc(CCC)cc1O` [CBDV, cannabidivarin], the MIC runs as follows: under setting [1], 3.12 µg/mL (≈ 10.9 µM); under setting [2], 3.12 µg/mL (≈ 10.9 µM).
For `CCCCc1cc(O)c(CC=C(C)CCC=C(C)C)c(O)c1` [CBG-C4, cannabigerol butyl], the “minimum inhibitory concentration (MIC) against P. gingivalis” value was 3.125 µg/mL (≈ 10.3 µM). Where the note is “against P. gingivalis; Table 1”, the MIC is 3.125 µg/mL (≈ 10.3 µM).
With `CCCCCc1cc2c(c(O)c1C(=O)O)C1C3C(CCC3(C)O2)C1(C)C` (stereo not drawn) [CBLA, cannabicyclolic acid], the “minimum inhibitory concentration (MIC) against P. gingivalis” value amounted to 3.125 µg/mL (≈ 8.72 µM). Moreover, under “against P. gingivalis; Table 1”, the MIC was determined as 3.125 µg/mL (≈ 8.72 µM).
Consider `CCCCCc1cc2c(c(O)c1C(=O)O)-c1cc(C)ccc1C(C)(C)O2` [CBNA, cannabinolic acid], for which the “minimum inhibitory concentration (MIC) against P. gingivalis” value stood at 3.125 µg/mL (≈ 8.82 µM). In addition, the MIC (against P. gingivalis; Table 1) amounted to 3.125 µg/mL (≈ 8.82 µM).
As to `C=C(C)[C@@H]1CCC(C)=C[C@H]1c1c(O)cc(CCCCC)c(C(=O)O)c1O` [CBDA, cannabidiolic acid], the MIC by setting is: under setting [3], under 1 µg/mL; under setting [1], 0.39 µg/mL (≈ 1.09 µM).
`C=C(C)[C@@H]1CCC(C)=C[C@H]1c1c(O)cc(C)cc1O` [CBD-C1, Cannabidiorcol]: the “minimum inhibitory concentration (MIC) against P. gingivalis” value was 100 µg/mL (≈ 387 µM). In addition, the MIC (against P. gingivalis; Table 1) was 100 µg/mL (≈ 387 µM).
For the compound `CCCc1cc(O)c(C/C=C(\C)CCC=C(C)C)c(O)c1` [CBGV, cannabigerivarin], the “minimum inhibitory concentration (MIC) against P. gingivalis” value was 3.125 µg/mL (≈ 10.8 µM). Where the note is “against P. gingivalis; Table 1”, this compound returned an MIC of 3.125 µg/mL (≈ 10.8 µM).
`CCCc1cc(O)c(C/C=C(\C)CCC=C(C)C)c(O)c1C(=O)O` [CBGVA, cannabigerovarinic acid]: the “minimum inhibitory concentration (MIC) against P. gingivalis” value was 25 µg/mL (≈ 75.2 µM). The MIC (against P. gingivalis; Table 1) is 25 µg/mL (≈ 75.2 µM).
For `CCCCCc1cc(O)c(C/C=C(\C)CCC=C(C)C)c(O)c1` [CBG, cannabigerol], the MIC is, setting by setting: under setting [3], under 1 µg/mL; under setting [1], 0.78 µg/mL (≈ 2.46 µM).
The like results for `CCCCCc1cc(O)c(C/C=C(\C)CCC=C(C)C)c(O)c1C(=O)O` [CBGA, cannabigerolic acid] were, in that order, under 1 µg/mL and at most 0.097 µg/mL.
Regarding `C=C(C)[C@@H]1CCC(C)=C[C@H]1c1c(O)cc(CCCC)cc1O` [CBD-C4, cannabidol-C4], the “minimum inhibitory concentration (MIC) against P. gingivalis” value amounted to 3.125 µg/mL (≈ 10.4 µM). Also, the MIC (against P. gingivalis; Table 1) amounted to 3.125 µg/mL (≈ 10.4 µM).
For the compound `C=C(C)[C@@H]1CCC(C)=C[C@H]1c1c(O)cc(CCCCC)cc1O` [CBD, cannabidol], the “minimum inhibitory concentration (MIC) against P. gingivalis” value was determined as 3.125 µg/mL (≈ 9.94 µM). The compound also displayed an MIC (against P. gingivalis; Table 1) of 3.125 µg/mL (≈ 9.94 µM).
